This passage reports pKa results from the pKa sets of Baltruschat and Czodrowski (2020).

Where a SMILES comes first, the peptide text is derived from it. [ ]: non-standard residue; d: D form. pGlu = O=C1CC[C@@H](C(=O)O)N1

On to `CNC(=O)/C=C(\c1ccc2nc(N)n(C3CCCC3)c2c1)c1ccccc1F`, for which the pKa (basic group) came out at 6.7. Under “basic group”, `CC(C)(C)c1cc(N)cc(C(C)(C)C)c1[N+](=O)[O-]` registered a pKa of 2.93. In turn, `CC[NH+](CC)Cc1cc(F)ccc1O` displayed a pKa (acidic group) of 8.23. Still for that read-out and setting: the result for `Cc1ccc(S(=O)(=O)N(CC[NH2+]CC(=O)O)CC(=O)O)cc1` reads 1.99. In the case of `COc1cccc2ccc(C)nc12`, under “basic group”, the pKa is 5.69. For `O=C(O)[C@@H]1O[C@H](Oc2ccc(I)cc2)[C@@H](O)[C@H](O)[C@H]1O`, the pKa (acidic group) turned out to be 3.28.

In turn, `Cc1cc(/N=N/c2ccc(S(N)(=O)=O)cc2)cc(C(=O)[O-])c1O` showed a pKa (acidic group) of 10.2. Consider `NCC(O)C[NH3+]`, for which the pKa (basic group) was found to be 8.19. On the same count and under the same terms, the same measure for `Nc1ncc2ncn([C@H]3O[C@@H](CO)[C@H](O)[C@@H]3O)c2n1`: 3.4. For the compound `N#CCC(C(=O)O)c1ccccc1` (stereo not given), the pKa (acidic group) is 3.44. The same measure, in the same setting: the result for `CC(=O)[n+]1ccc(C)cc1` reads 6.15.

For the compound `CN(C)/C=N/c1ccccc1Cl`, the pKa (basic group) is 6.85. On the same count and under the same terms, the same measure for `O=C1N[C@@H](Cc2c[nH+]c[nH]2)C(=O)N[C@H]1Cc1cnc[nH]1`: 5.56.

In the case of `CC1(C)CCC(C2CCC(C)(C)[NH2+]2)N1` (stereo not given), the pKa (basic group) was determined as 6.95. Same read-out and setting: the same measure for `Cc1ccc(/N=C/N(C)C)cc1`: 9.21.

Take `c1ccc(-c2ccnc3c2ccc2c(-c4ccccc4)ccnc23)cc1`: the pKa (basic group) came out at 4.84.

Consider `O=C1NC(=O)[C@@H]2CCCC[C@H]12`, for which the pKa (acidic group) came to 9.72. `CCC(C)N` (stereo not given) displayed a pKa (basic group) of 10.6. The compound `Cc1ccc(SCC(=O)O)cc1` displayed a pKa (acidic group) of 3.57. Under “basic group”, `CCN(CC)c1nnc(-c2ccccc2)s1` showed a pKa of 3.09. On to `CN(C)c1cc[nH+]cc1`, for which the pKa (basic group) was -7.78. Turning to `CN1CCCN(C)Cc2ccccc2OCCOc2ccccc2C1`, the pKa (basic group) is 10.1. On to `CC(C)(C)CCCCc1ccc(O)cc1`, for which the pKa (acidic group) amounted to 11.2. `c1cc([C@@H]2CCCN2)nc([C@@H]2CCC[NH2+]2)c1` came in with a pKa (basic group) of 9.39. With `Nc1ccc2cc3cc(Cl)ccc3nc2c1`, the pKa (basic group) was found to be 6.95.

Consider `c1cnc2ncncc2n1`, for which the pKa (basic group) came to 4.13. For `C[NH+](C)Cc1cc(Br)ccc1O`, the pKa (acidic group) came out at 7.58. `S=C(Nc1ccc(Cl)c(Cl)c1)c1ccccc1` came in with a pKa (acidic group) of 9.96.

Where the note is “basic group”, `CC1CNCc2ccccc2OCCOc2ccccc2CN1` (stereo not given) displayed a pKa of 9.41. `Oc1cc[nH+]cc1O` displayed a pKa (acidic group) of 3.6.

The compound `O=[N+]([O-])c1cc(-c2ccccc2)nnc1NCCN1CCOCC1` gave a pKa (basic group) of 6.56. Take `Cc1ccnc([S-])[nH+]1`: the pKa (basic group) was found to be 2.2. Under “basic group”, `c1ncc2c(n1)NCCN2` came in with a pKa of 6.63. `CC(C)(C)c1ccc(C(=O)/C=C/C(=O)O)cc1`: the pKa (acidic group) is 3.42. As to `CN(C)c1ccc(/C=C/c2ccncc2)cc1`, the pKa (basic group) is 6.25. The compound `Nc1c[nH]nc1[N+](=O)[O-]` came in with a pKa (acidic group) of 9.5. With `Cc1ccc(-c2cnc(-c3ccc(C)cc3)o2)cc1`, for the setting “basic group”, the pKa came to 1.12. The same measure, in the same setting: the result for `CC(C)N/C=N/c1ccc(-c2c[nH]cn2)cc1` reads 8.88. As to `O=C(O)CC1[NH2+]Nc2ccccc21` (stereo not given), the pKa (acidic group) was 2.9. On to `Cc1cnc(C)c(C)n1`, for which, for the setting “basic group”, the pKa amounted to 2.65. `Cc1cc(O)ccc1[N+](=O)[O-]` returned a pKa (acidic group) of 7.65. Take `CC1(C)NC(=S)NC1=S`: where the note is “acidic group”, the pKa is 7.65.

As to `[NH3+]CCCCC(=O)O`, for the setting “acidic group”, the pKa amounted to 4.26. `Cn1ccc(=N)cc1`: the pKa (basic group) turned out to be 12.5. With `Cn1cnc2cc(O)ccc21`, the pKa runs as follows: (acidic group) 9.85; (basic group) 6.1. Regarding `O=C(O)c1ccc2ccccc2[nH+]1`, the pKa (acidic group) was found to be 1.79. `C=CCCN1C[C@H]2C[C@@H](C1)c1cccc([O-])[n+]1C2`: for the setting “basic group”, the pKa turned out to be 7. As for `O=[N+]([O-])c1n[nH]c(-n2cnc(Br)n2)n1`, the pKa (acidic group) came out at 1.63. Regarding `Cc1ncc(C[NH3+])c(N)n1`, the pKa (basic group) was 4. Compound `OCC(S)CS` (stereo not given) returned a pKa (acidic group) of 8.62.

`O=C(Cc1ccc2ccc3cccnc3c2n1)c1ccccc1` showed a pKa (basic group) of 4.4.

As to `O=C(O)[C@@H]1C[C@@H]1Br`, the pKa (acidic group) is 4.09.

Compound `C1CN=C2NCCC2C1` (stereo not given) had a pKa (basic group) of 11.7. On the same count and under the same terms, the same measure for `Nc1ccc(-c2ccccc2)cc1`: 4.38; for `CCCc1cccnn1`: 3.59.

As for `Cc1nnc(C)c(C)c1C`, the pKa (basic group) turned out to be 5.36. Still for that read-out and setting: the result for `CC1=CSC2=NCCN12` reads 9.81; that for `C[NH+](C)CCCNc1c2ccccc2nc2c(Cl)ccc([N+](=O)[O-])c12`, 5. In turn, `CC(=O)OC1CN2CCC1CC2` (stereo not given) showed a pKa (basic group) of 9.27.

For the setting “acidic group”, `Cc1nn(C)c(O)c1Cc1ccccc1` gave a pKa of 10.9. Compound `C[C@H](NC(=O)[C@H](CCC(N)=O)NC(=O)[C@@H]1CCC(=O)N1)C(=O)O` ([pGlu]-Gln-Ala-OH) displayed a pKa (acidic group) of 3.67. Same read-out and setting: the same measure for `O=C(O)CC(c1ccccc1)c1ccccc1Cl` (stereo not given): 4.7. Under “basic group”, `COc1ccc(-c2cnc(-c3ccccc3)o2)cc1` registered a pKa of 1.05.

For the compound `CN1CCCN1C`, the pKa (basic group) came out at 6.67. Turning to `CCc1cc(C(C)C)ccc1O`, the pKa (acidic group) amounted to 10.8. The same measure, in the same setting: the result for `C#CC#CC#CCC(O)CCC(=O)O` (stereo not given) reads 4.75. `CC(C)(C)N1NC2CCC1C21CC1` (stereo not given) showed a pKa (basic group) of 9.33. Consider `SCc1ncc[nH]1`, for which the pKa worked out at 9.26 (acidic group) and 6.37 (basic group).
